Results as given in paper PMC7667029, “A Targeted Computational Screen of the SWEETLEAD Database Reveals FDA-Approved Compounds with Anti-Dengue Viral Activity” (mBio, 2020).
Entries after “also recorded” stand apart in the source; their conditions may differ.

How the values were obtained:
dengue virus [1] = test: Initial screening of hit compounds for anti-dengue activity in tissue culture cells (Table S1); assay type: cell-based; settings: viral titer relative to vehicle, tissue culture cell lines (BHK-21 48 hpi, Fig. S1; Huh7, Fig. 2C, 3C, 4C)
Protocol: For each query molecule, the top 500 compound hits obtained from the ROCS algorithm, as ranked by the Tanimoto combo score (see Data Set S1 in the supplemental material), were manually inspected for similar chemical and structural features. They were further prioritized by factors such as a lack of known side effects, commercial availability, and the intellectual property considerations that would be needed for worldwide, inexpensive use. Fourteen candidates were tested for their effects on dengue virus growth and toxicity in BHK-21 and Huh7 cells (see Table S1 and Fig. S1 in the supplemental material).
(§1) Supplementary file : TABLE S1 Summary of hits for lead compounds ARDP0006 and ST-148 screened for anti-dengue activity in tissue culture cells. Hit compounds were tested for anti-dengue activity and cell toxicity in tissue culture cell lines. Antiviral activity is summarized as follows: −, not antiviral, with titer greater than 50% of vehicle; +, weakly antiviral, with titer between 20 and 50% of vehicle; ++, moderately antiviral, with titer between 5 and 20% of vehicle; +++, highly antiviral, with titer less than 5% of vehicle. Toxicity at these doses is represented as follows: −, nontoxic, with cell viability greater than 80% of vehicle; +, mild toxicity, with cell viability between 60 and 80% of vehicle; +++, high toxicity, with cell viability less than 60% of vehicle. Data summarized here are depicted graphically in Fig. S1 and Fig. 2C, 3C, and [4]C. The Tanimoto combo score of each hit during initial ROCS screening is indicated; higher Tanimoto combo scores are indicative of increased chemical similarity. Download Table S1, PDF file, 0.04 MB.
Supplementary file : FIG S1 Initial screening of eliminated hit compounds for anti-dengue activity in tissue culture cells. BHK-21 cells were pretreated with the compounds at the indicated concentrations for 30 min, infected with dengue virus at an MOI of 0.1 PFU/cell for 1 h, and then posttreated with compound. At 48 hpi, cellular supernatant was collected and titered by plaque assay (purple). Cell viability in uninfected cells in the presence of compounds for 48 h was measured by WST assay (gray). Both viral titer and cell viability are normalized to their relative DMSO vehicle control, N = 2. Download FIG S1, PDF file, 0.06 MB.

dengue viral RNA = test: Intracellular viral RNA quantification by qRT-PCR in infected Huh7 cells; assay type: cell-based, dengue virus
Protocol: (§2) (A) Chemical structures and (B) ROCS overlay of ST-148 and niclosamide. […] Compound addition, viral growth, and cytotoxicity assays were performed as described in the legend to Fig. 2C. (D) Virucidal activity of compounds at the concentrations indicated was measured after 60-min incubation of drugs with virus-containing solutions at 37°C. Viral titer was quantified by plaque assay on BHK-21 cells. n = 3. Statistical significance was evaluated by one-way ANOVA with Sidak’s multiple-comparison test and indicated as follows: *, P < 0.05; **, P < 0.01; ****, P < 0.0001; ns, not significant. […] On the left, cells were pretreated for 2 h prior to infection, compounds were removed during a 1-h infection at an MOI of 0.5 PFU/cell and then readministered after removal of viral inoculum. On the right, cells were similarly infected and compounds were first introduced 4 h after starting the infection. […] (F) To test the effect of ST-148 and niclosamide on viral RNA replication, Huh7 cells were infected for 1 h at an MOI of 0.5 PFU/cell. […] Intracellular RNA was collected at the time points indicated and quantified by qRT-PCR. […] N = 4, two-way ANOVA with Dunnett’s multiple-comparison test. […] After 4 h of infection, 10 μM ST-148 or 1 μM niclosamide was added; extracellular virus was collected at 24 hpi and quantified by plaque assay.

DENV2 = test: Antiviral activity in DENV2-infected Huh7 cells, infectious virus in supernatant by plaque assay; assay type: cell-based, dengue virus
Protocol: FIG 2 Pyrimethamine inhibits dengue virus and NS2B/3 proteinase cleavage like ARDP0006. (A) Chemical structures and (B) ROCS overlay of ARDP0006 and pyrimethamine. […] Infectious virus in cell supernatant was quantified by plaque assay at 24 hpi (left y axis, black or red). Cell viability was measured at the same pyrimethamine doses 24 h posttreatment by WST-1 assay (right y axis, gray). Viral titer and cell viability were normalized to DMSO-treated samples. (D) Splenic titers of DENV2-infected AGB6 mice at 4 days postinfection. Mice were infected with 1 × 10^6 PFU DENV2 and treated twice daily with 20 mg/kg pyrimethamine (n = 9) or a vehicle control (n = 10). Data were analyzed by two-tailed unpaired t test. (E) Cleavage kinetics of NS2B/3/4A in the presence of 100 μM pyrimethamine. NS2B/3/4A protein was expressed in vitro and radiolabeled with [^35S]methionine, followed by treatment with 100 μM pyrimethamine or DMSO. Reaction samples were obtained over a 45-min time course, separated by SDS-PAGE, and the fraction of uncleaved proteinase precursor remaining was determined as described previously ([23]). Data from three replicates were fit using single-phase exponential decay functions, and P value was determined by comparing the rate constant, K, of the models using the extra sum-of-squares F test.
Dengue plaque assays were carried out on BHK-21 cells in 24-well plates. Cells were infected with 10-fold serial dilutions of virus, which were allowed to adsorb for at least 1 h at 37°C, and overlaid with standard cell culture medium plus 0.37% (w/vol) sodium bicarbonate and 0.8% (w/vol) Aquacide II (Millipore Calbiochem). After 7 days of incubation at 37°C, 5% CO2, cells were fixed with 5% (final) formaldehyde and stained with crystal violet for plaque enumeration.
Between 4 × 10^4 and 1 × 10^5 Huh7 cells per well were seeded into 24-well plates 1 day prior to infection. Compounds were diluted to 100× final concentration in DMSO and then further diluted 1:100 into appropriate cell culture. Unless otherwise indicated, tested compounds were present for 1 h pretreatment and readministered for posttreatment following infection. […] Media and drugs were removed from cells for infection at a multiplicity of infection (MOI) of 0.1 or 0.5 in 200 μl cold medium per well. After 1 h at 37°C, virus inoculum was removed by aspiration and replaced with medium plus compound or control. After 24-h total infection, infectious virus was quantified by plaque assay. Antiviral IC50 dose-response curves were fitted in GraphPad Prism 8 using the “[inhibitor] versus response, variable slope” function with a constraint “bottom > 0.” IC90 values are defined as the dose at which “y = (span × 0.1) + bottom.”

dengue virus [2] = test: Virucidal activity assay, 60-min incubation of drug with virus, plaque assay on BHK-21 cells; assay type: cell-based; settings: 0.1 μM ST-148, 1 h at 37°C
Protocol: as §2
Compounds were diluted to 100× in DMSO, then further diluted 1:100 into phosphate-buffered saline (PBS) containing dengue virus to a final volume of 200 μl and mixed. Aliquots were taken for plaque assays immediately after addition of compounds (time [T] = 0 min) or after incubation at 37°C for 60 min (T = 60 min).

BHK-21 and Huh7 cells = test: Cell viability by WST assay in uninfected cells (Table S1); assay type: cell-based; settings: cell viability relative to vehicle at these doses
Protocol: as §1, with “The Tanimoto combo score of each hit during initial ROCS screening is indicated; higher Tanimoto combo scores are indicative of increased chemical similarity. Download Table S1, PDF file, 0.04 MB.” left out
Supplementary file : FIG S1 Initial screening of eliminated hit compounds for anti-dengue activity in tissue culture cells. […] Cell viability in uninfected cells in the presence of compounds for 48 h was measured by WST assay (gray). […]
Mock-infected wells were used to determine cell viability in the presence of chemical compounds compared to 1% DMSO vehicle control. Cell viability was determined using the WST-1 kit (Abcam) per the manufacturer’s instructions. […]

Row | Compound | Antiviral (dengue virus [1]) | also measured
1 | Cc1c(NC(=O)c2cccnc2)c(=O)n(-c2ccccc2)n1C [Nifenazone] | + (weakly antiviral, with titer between 20 and 50% of vehicle) | 
2 | Cc1noc(NS(=O)(=O)c2ccc(N)cc2)c1C [Sulfisoxazole] | + (weakly antiviral, with titer between 20 and 50% of vehicle) | 
3 | Cc1cnc(NC(=O)C2=C(O)c3ccccc3S(=O)(=O)N2C)s1 [Meloxicam] | − (not antiviral, with titer greater than 50% of vehicle) | 
4 | COc1cc2nc(N3CCN(C(=O)C4COc5ccccc5O4)CC3)nc(N)c2cc1OC (stereo not shown) [Doxazosin] | + (weakly antiviral, with titer between 20 and 50% of vehicle) | 
5 | Cc1nccn1CC1CCc2c(c3ccccc3n2C)C1=O (stereo not shown) [Ondansetron] | ++ (moderately antiviral, with titer between 5 and 20% of vehicle) | 
6 | COc1c2occc2cc2ccc(=O)oc12 [Methoxsalen] | − (not antiviral, with titer greater than 50% of vehicle) | 
7 | Cc1cccn2c(=O)c(-c3nnn[nH]3)cnc12 [Pemirolast] | − (not antiviral, with titer greater than 50% of vehicle) | 
8 | C[C@@]1(O)[C@H](O)[C@@H](CO)O[C@H]1n1ccc2c(N)ncnc21 [MK0608] |  | Viral RNA abundance (dengue viral RNA; 50 μM MK0608, control for inhibited vRNA replication): significantly reduced vRNA load; also recorded: strongly reduced viral RNA abundance
9 | Nc1c(C(=O)Nc2nnc(-c3ccccc3)s2)sc2nc3c(cc12)CCCCC3 [ST-148] |  | Virion production at increased dose after entry (DENV2; 10 μM ST-148 or 1 μM niclosamide added after 4 h of infection, extracellular virus at 24 hpi): effective during later, postentry stages; also recorded: inhibited virion production; IC90 (DENV2; Dengue virus, Huh-7, DENV2-infected Huh7 cells, from dose-response curve fit, 24 hpi): 5600 nM; IC50 (DENV2; Dengue virus, Huh-7, DENV2-infected Huh7 cells, single infectious cycle, plaque assay at 24 hpi, read-out: IC50 of viral inhibition (infectious extracellular virus)): 380 nM; Viral titer on delayed addition of compound (DENV2; IC90 dose first added 4 h after infection, Huh7, 24 hpi): eliminated the observed reduction of viral titer; Virucidal activity (viral infectivity after coincubation) (dengue virus [2]): significantly reduced viral infectivity; Viral RNA abundance (dengue viral RNA; added 4 h postinfection at IC90 dose (5.6 μM ST-148, 0.66 μM niclosamide)): no difference in viral RNA abundance
10 | Nc1nc(N)c2nc(-c3ccccc3)c(N)nc2n1 [Triamterine] | +++ (highly antiviral, with titer less than 5% of vehicle) | Toxicity (BHK-21 and Huh7 cells): +++ (high toxicity, with cell viability less than 60% of vehicle)
11 | COc1ccc2[nH]c([S+]([O-])Cc3ncc(C)c(OC)c3C)nc2c1 (stereo not shown) [Omeprazole] | − (not antiviral, with titer greater than 50% of vehicle) | 
12 | Nc1c2c(nc3ccccc13)CCCC2O (stereo not shown) [Hydroxy tacrine] | − (not antiviral, with titer greater than 50% of vehicle) | 
13 | CC1=NN(c2ccc(C)c(C)c2)C(=O)/C1=N\Nc1cccc(-c2cccc(C(=O)O)c2)c1O [Eltrombopag] | − (not antiviral, with titer greater than 50% of vehicle) | 
